According to PMC12567909 (Veterinary Sciences, 2025):
Like-named read-outs stand apart in the source and are kept apart here.

Assays:
[1] = biological target: T1, DPV pUL15FL (full-length pUL15) (anatid alphaherpesvirus 1, UniProt C6ZD26); assay type: biochemical
T1 construct: gene UL15

[2] = biological target: T2, pUL15N (N-terminus domain of DPV pUL15) (anatid alphaherpesvirus 1, UniProt C6ZD26); settings: 1 mM ATP, 2 µM protein, 2 mM MgCl2, 50 mM NaCl, pH 7.5, 37 °C
T2 construct: gene UL15

SMILES	malachite green phosphate release ([1]; 1 mM ATP, 2 mM MgCl2, 50 mM NaCl, pH 7.5, 37 °C)	malachite green phosphate release [2]	malachite green phosphate release [1]
Nc1ncnc2c1ncn2[C@@H]1O[C@H](COP(=O)(O)OP(=O)(O)OP(=O)(O)O)[C@@H](O)[C@H]1O [ATP]	DPV pUL15FL hydrolyzes both ATP and ADP	the pUL15N exhibited ATPase activity like pUL15FL, whereas pUL15C did not	
Nc1ncnc2c1ncn2[C@@H]1O[C@H](COP(=O)(O)OP(=O)(O)O)[C@@H](O)[C@H]1O [ADP]			DPV pUL15FL hydrolyzes both ATP and ADP
